The text below walks through data of ChEMBL document CHEMBL1158929, “Tolytoxin and new scytophycins from three species of Scytonema” (J Nat Prod, 1990).

The term IC50 denotes the concentration needed to halve the response being measured.

One experiment concerns KB. As to the kind of experiment: Cytotoxicity against human KB cells. The format is functional, cell-based.
Another experiment relates to Aspergillus oryzae. As to the kind of experiment: Antifungal activity against Aspergillus oryzae by agar diffusion assay. The format is functional, organism-based. For orientation: In agar diffusion tests the substance spreads into inoculated agar from a disc or well.
In a further experiment the test system is Candida albicans. The experiment can be described thus: Antifungal activity against Candida albicans by agar diffusion assay. The format is functional, organism-based.
A further experiment concerns Penicillium chrysogenum. As to the kind of experiment: Antifungal activity against Penicillium notatum by agar diffusion assay. The format is functional, organism-based.
Another experiment concerns Saccharomyces cerevisiae. The experiment can be described thus: Antifungal activity against Saccharomyces cerevisiae by agar diffusion assay. The format is functional, organism-based.
Another experiment concerns LoVo. The experiment can be described thus: Cytotoxicity against human LoVo cells. The format is functional.

In brackets after ≈: the same amount, converted by molar mass. Activity calls are given as the source filed them. No cut-off for these calls is given here.

Take `CO[C@H]([C@H](C)/C=C/N(C)C=O)[C@@H](C)C(=O)CC[C@H](C)[C@H](O)[C@H](C)[C@H]1OC(=O)/C=C/C(C)=C/C[C@H](O)C[C@@H]2C=CC[C@@H](C[C@H](OC)[C@@H](C)[C@@H](OC)C[C@@H](O)[C@@H]1C)O2`: the IC50 in the experiment on KB is 1 ng/mL (≈ 1.26 nM). Also, the result with Aspergillus oryzae, in the experiment with Candida albicans, with Penicillium chrysogenum and with Saccharomyces cerevisiae was Active.

As for `CO[C@H]([C@H](C)/C=C/N(C)C=O)[C@@H](C)C(=O)CC[C@H](C)[C@H](O)[C@H](C)[C@H]1OC(=O)/C=C/C(C)=C/[C@H](O)[C@H](OC)C[C@@H]2C=CC[C@@H](C[C@H](OC)[C@@H](CO)[C@@H](OC)C[C@@H](OC)[C@@H]1C)O2`, the IC50 in the experiment on KB amounted to 1 ng/mL (≈ 1.17 nM). Besides, the result in the experiment with Aspergillus oryzae, with Candida albicans, with Penicillium chrysogenum and in the experiment with Saccharomyces cerevisiae was Active.

In the experiment with KB, `CO[C@H]([C@H](C)/C=C/N(C)C=O)[C@@H](C)C(=O)CC[C@H](C)[C@H](O)[C@H](C)[C@H]1OC(=O)/C=C/C(C)=C/[C@H](O)[C@H](O)C[C@@H]2C=CC[C@@H](C[C@H](OC)[C@@]3(CO3)[C@@H](OC)C[C@@H](OC)[C@@H]1C)O2` [6-HYDROXYSCYTOPHYCIN B] had a half-inhibitory concentration (IC50) of 1 ng/mL (≈ 1.2 nM). For the same compound, the outcome in the experiment on Aspergillus oryzae, in the experiment with Candida albicans, in the experiment with Penicillium chrysogenum and in the experiment on Saccharomyces cerevisiae was Active.

`CO[C@H]([C@H](C)/C=C/N(C)C=O)[C@@H](C)C(O)CC[C@H](C)[C@H](O)[C@H](C)[C@H]1OC(=O)/C=C/C(C)=C/C[C@H](O)C[C@@H]2C=CC[C@@H](C[C@H](OC)[C@@]3(CO3)[C@@H](OC)C[C@@H](OC)[C@@H]1C)O2` (stereo partly specified) [SCYTOPHYCIN A] displayed an IC50 with KB of 1 ng/mL (≈ 1.22 nM).

`CO[C@H]([C@H](C)/C=C/N(C)C=O)[C@@H](C)C(=O)CC[C@H](C)[C@H](O)[C@H](C)[C@H]1OC(=O)/C=C/C(C)=C/C[C@H](O)C[C@@H]2C=CC[C@@H](C[C@H](OC)[C@@]3(CO3)[C@@H](OC)C[C@@H](OC)[C@@H]1C)O2` [SCYTOPHYCIN B] registered an IC50 in the experiment on KB of 1 ng/mL (≈ 1.22 nM).

On to `CO[C@H]([C@H](C)/C=C/N(C)C=O)[C@@H](C)C(=O)CC[C@H](C)[C@H](O)[C@H](C)[C@H]1OC(=O)/C=C/C(C)=C/C[C@H](O)C[C@@H]2C=CC[C@@H](C[C@H](OC)[C@@H](C)[C@@H](OC)C[C@@H](OC)[C@@H]1C)O2` [SCYTOPHYCIN C], for which the 50% inhibitory concentration (IC50) with KB worked out at 10 ng/mL (≈ 12.4 nM).

The compound `CO[C@H]([C@H](C)/C=C/N(C)C=O)[C@@H](C)C(=O)CC[C@H](C)[C@H](O)[C@H](C)[C@H]1OC(=O)/C=C/C(C)=C/C[C@H](O)C[C@@H]2C=CC[C@@H](C[C@H](OC)[C@](C)(O)[C@@H](OC)C[C@@H](OC)[C@@H]1C)O2` [SCYTOPHYCIN D] displayed a half-inhibitory concentration (IC50) with KB of 10 ng/mL (≈ 12.2 nM).

In turn, `CO[C@H]([C@H](C)/C=C/N(C)C=O)[C@@H](C)C(=O)CC[C@H](C)[C@H](O)[C@H](C)[C@H]1OC(=O)/C=C/C(C)=C/C[C@H](O)C[C@@H]2C=CC[C@@H](C[C@H](OC)[C@@H](CO)[C@@H](OC)C[C@@H](OC)[C@@H]1C)O2` [SCYTOPHYCIN E] had a half-maximal inhibitory concentration (IC50) in the experiment with KB of 10 ng/mL (≈ 12.2 nM). The compound also displayed an MIC in the experiment on LoVo of 10 ng/mL (≈ 12.2 nM).

`CO[C@H]([C@H](C)/C=C/N(C)C=O)[C@@H](C)C(=O)CC[C@H](C)[C@H](O)[C@H](C)[C@H]1OC(=O)/C=C/C(C)=C/[C@H](O)[C@H](OC)C[C@@H]2C=CC[C@@H](C[C@H](OC)[C@@]3(CO3)[C@@H](OC)C[C@@H](OC)[C@@H]1C)O2` [TOLYTOXIN] had an IC50 with KB of 1 ng/mL (≈ 1.18 nM). The outcome in the experiment on Aspergillus oryzae, with Candida albicans, in the experiment on Penicillium chrysogenum and in the experiment with Saccharomyces cerevisiae was Active.
